We go through one compound from article PMC10140010 (Investigational New Drugs, 2023).

The target in one series is T1, OATP1B1 (Homo sapiens, UniProt Q9Y6L6).
T1 construct: No ESH6G27; host or cells: HEK293
T1 sequence (Q9Y6L6 1-691): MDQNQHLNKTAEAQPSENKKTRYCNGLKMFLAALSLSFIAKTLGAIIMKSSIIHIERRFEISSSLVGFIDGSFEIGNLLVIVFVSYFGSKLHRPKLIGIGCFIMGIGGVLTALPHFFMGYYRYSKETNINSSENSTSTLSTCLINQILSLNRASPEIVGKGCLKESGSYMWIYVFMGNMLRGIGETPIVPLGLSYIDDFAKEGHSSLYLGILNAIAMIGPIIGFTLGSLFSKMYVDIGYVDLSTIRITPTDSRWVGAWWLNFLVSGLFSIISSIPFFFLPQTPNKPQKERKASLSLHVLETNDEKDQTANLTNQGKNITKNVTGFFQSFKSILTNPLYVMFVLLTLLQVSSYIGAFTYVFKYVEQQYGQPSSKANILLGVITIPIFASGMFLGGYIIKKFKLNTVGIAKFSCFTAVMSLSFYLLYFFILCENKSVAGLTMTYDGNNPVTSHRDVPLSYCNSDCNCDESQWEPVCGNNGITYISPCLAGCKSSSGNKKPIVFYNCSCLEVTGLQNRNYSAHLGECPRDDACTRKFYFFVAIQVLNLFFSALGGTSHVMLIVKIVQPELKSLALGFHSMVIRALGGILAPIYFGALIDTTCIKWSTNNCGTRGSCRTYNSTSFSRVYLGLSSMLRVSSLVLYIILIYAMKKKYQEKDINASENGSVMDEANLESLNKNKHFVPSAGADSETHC
The series can be described thus: Uptake inhibitor investigation in HEK293 cells expressing transporter. It is filed as in vitro ADME.

Series [1] concerns phosphorylation of ALK, AKT, ERK, STAT3 in NCI-H3122 cells. The series is described as follows: Western blot of ALK and downstream signaling phosphorylation. Conditions: 2 h incubation. It is filed as cell-based, human. On the procedure:
In general, the cells were exposed to the drug and were harvested for western blot analysis. SDS-PAGE was used to separate the proteins of interest, which were then transferred to a nitrocellulose (NC) filtration membrane and soaked in a blocking solution [5% non-fat dry milk in tris-buffered saline with Tween 20 (TBST)] for 1 h at room temperature. Thereafter, the membrane was probed overnight with primary antibodies at 4℃ and washed three times with TBST. The corresponding secondary antibody diluent was added, incubated at room temperature for 1 h, and washed 3 times with TBST. After adding the enhanced chemiluminescence developer to the NC filtration membrane, it is developed in the imaging system (ChemiDoc™ XRS^+, BIO-RAD). See Supplementary Table 2 for details of the antibodies used.

A short description of series [2]: Recovery in dialysis device and stability in plasma during dialysis. The series is classed as in vitro ADME. To be noted: 0.2, 2 and 10 µM, all species. On the procedure: At three test concentrations (0.2, 2 and 10 µM), the plasma protein binding rate of iruplinalkib is as follows (Fig. 3a). […] With the increase of concentration, the protein binding rates of iruplinalkib in rat plasma decreased gradually, showing a certain concentration dependence, and there was no concentration dependence of protein binding rate observed in other species plasma.

Where [3] appears, read: human, HEK293 cells expressing OATP1B1, probe ATV (atorvastatin), 1 μM, read-out: Inhibition rate.

Description for OATP1B1: Using a stably transfected cell line of HEK293 expressing transporter OATP1B1, OATP1B3 or OCT2, formal substrate investigation tests were performed for three concentration gradients (30 µM, 3 µM, 0.3 µM) of iruplinalkib.

A word on the inhibition: it is the change of the read-out against control, counted positive when it falls. As for `COc1cc(N2CCC3(CCN(C)CC3)CC2)ccc1Nc1ncc(Cl)c(Nc2ccccc2P(C)(C)=O)n1` [Iruplinalkib], the “inhibition of OATP1B1 uptake activity” value on OATP1B1 (HEK293) is reported as “can inhibit the uptake activity”. In addition, at OATP1B1 (setting [3]), the inhibition at 0.5 μM is 26.5%, the inhibition at 5 μM is 28.9% and the inhibition at 50 μM turned out to be 67.8%. For the same compound, in series [1], the “phosphorylation level of STAT3” value is “not STAT3” and the “phosphorylation levels of ALK, AKT, ERK” value is “reduced”. For the same compound, the “remaining rates in plasma after incubation for 5 h” value in series [2] was 95–109.3%. In series [2] (CD-1 (mouse), SD (rat), Beagle (dog), plasma, read-out: recovery rates in the dialysis device), the recovery was 81.8 to 99.9%.
